The target in the test is T1, human Cav2.2 (composed of the subunits α1, β3 and α2δ) (Homo sapiens, UniProt Q00975).
T1 construct: expressed in transfected cells
T1 sequence (Q00975 whole entry): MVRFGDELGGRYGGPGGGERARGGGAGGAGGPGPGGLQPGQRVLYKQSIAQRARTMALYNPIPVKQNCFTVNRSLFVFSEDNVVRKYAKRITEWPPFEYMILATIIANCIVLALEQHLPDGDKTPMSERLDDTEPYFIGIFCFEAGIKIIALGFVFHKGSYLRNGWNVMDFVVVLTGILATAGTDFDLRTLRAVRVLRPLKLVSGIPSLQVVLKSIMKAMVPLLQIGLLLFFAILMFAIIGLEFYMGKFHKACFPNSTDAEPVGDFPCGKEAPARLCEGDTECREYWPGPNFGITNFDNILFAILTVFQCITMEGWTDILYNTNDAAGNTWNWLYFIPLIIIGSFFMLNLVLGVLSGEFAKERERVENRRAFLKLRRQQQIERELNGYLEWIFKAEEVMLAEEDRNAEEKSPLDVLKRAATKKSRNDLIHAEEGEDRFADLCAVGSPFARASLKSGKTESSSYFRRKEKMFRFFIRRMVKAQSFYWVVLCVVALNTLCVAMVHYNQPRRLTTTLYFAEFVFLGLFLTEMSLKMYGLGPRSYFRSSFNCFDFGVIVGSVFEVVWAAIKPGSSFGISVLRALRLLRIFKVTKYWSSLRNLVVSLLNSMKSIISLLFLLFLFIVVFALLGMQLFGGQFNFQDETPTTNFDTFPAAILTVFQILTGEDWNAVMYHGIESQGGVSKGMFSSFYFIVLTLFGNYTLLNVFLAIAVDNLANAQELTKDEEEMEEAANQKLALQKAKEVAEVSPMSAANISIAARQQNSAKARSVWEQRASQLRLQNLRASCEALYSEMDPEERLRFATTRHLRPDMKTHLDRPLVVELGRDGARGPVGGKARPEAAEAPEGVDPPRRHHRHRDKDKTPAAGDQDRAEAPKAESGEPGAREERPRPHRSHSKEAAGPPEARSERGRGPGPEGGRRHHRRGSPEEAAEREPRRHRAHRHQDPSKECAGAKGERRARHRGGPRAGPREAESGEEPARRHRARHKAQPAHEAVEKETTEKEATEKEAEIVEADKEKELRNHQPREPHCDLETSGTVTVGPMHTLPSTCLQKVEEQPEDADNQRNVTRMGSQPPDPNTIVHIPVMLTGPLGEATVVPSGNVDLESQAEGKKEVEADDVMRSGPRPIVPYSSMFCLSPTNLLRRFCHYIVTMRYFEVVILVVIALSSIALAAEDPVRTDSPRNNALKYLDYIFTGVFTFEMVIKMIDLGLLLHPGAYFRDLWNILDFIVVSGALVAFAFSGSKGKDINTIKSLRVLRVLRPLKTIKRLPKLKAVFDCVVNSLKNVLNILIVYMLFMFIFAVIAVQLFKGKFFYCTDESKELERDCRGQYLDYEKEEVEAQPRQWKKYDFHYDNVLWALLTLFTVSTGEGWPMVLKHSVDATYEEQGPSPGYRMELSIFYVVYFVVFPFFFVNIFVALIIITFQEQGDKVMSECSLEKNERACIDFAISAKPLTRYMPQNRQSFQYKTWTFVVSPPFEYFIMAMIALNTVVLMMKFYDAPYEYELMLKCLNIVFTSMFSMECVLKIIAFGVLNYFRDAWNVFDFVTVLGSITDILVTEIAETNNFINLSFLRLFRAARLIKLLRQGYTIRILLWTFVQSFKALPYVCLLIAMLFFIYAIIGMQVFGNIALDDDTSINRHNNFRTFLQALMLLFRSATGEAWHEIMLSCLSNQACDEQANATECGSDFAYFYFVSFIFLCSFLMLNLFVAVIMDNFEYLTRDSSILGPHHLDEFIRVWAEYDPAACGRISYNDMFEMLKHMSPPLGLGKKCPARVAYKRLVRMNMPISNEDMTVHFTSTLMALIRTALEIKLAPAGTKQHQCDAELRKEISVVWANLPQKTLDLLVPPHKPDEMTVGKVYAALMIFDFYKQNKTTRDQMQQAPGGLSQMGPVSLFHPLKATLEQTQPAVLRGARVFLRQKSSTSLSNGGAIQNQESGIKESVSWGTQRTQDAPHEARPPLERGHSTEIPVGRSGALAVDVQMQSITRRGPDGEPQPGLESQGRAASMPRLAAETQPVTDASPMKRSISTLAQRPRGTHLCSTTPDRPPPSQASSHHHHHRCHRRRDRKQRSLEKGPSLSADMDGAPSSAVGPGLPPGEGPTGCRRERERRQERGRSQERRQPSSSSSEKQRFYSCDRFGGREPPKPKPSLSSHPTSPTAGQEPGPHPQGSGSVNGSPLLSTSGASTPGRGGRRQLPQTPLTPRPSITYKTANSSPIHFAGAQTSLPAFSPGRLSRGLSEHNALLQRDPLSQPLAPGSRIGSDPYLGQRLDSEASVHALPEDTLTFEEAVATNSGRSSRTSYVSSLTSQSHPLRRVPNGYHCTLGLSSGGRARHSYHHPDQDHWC
T1 sequence (P54284 whole entry partner): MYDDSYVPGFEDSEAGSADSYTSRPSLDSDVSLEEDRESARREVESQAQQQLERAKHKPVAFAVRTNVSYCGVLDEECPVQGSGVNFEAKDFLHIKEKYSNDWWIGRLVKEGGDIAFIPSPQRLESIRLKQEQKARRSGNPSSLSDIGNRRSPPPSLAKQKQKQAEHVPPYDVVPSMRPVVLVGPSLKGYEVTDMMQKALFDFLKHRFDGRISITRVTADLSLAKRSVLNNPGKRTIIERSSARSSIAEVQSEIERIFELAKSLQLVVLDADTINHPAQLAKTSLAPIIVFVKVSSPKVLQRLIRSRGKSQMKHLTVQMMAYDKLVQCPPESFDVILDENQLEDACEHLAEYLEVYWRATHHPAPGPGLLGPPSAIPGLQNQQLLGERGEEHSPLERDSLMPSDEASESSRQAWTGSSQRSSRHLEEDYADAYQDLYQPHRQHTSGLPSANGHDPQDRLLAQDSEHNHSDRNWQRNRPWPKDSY
T1 sequence (P54289 25-946 partner limits assumed): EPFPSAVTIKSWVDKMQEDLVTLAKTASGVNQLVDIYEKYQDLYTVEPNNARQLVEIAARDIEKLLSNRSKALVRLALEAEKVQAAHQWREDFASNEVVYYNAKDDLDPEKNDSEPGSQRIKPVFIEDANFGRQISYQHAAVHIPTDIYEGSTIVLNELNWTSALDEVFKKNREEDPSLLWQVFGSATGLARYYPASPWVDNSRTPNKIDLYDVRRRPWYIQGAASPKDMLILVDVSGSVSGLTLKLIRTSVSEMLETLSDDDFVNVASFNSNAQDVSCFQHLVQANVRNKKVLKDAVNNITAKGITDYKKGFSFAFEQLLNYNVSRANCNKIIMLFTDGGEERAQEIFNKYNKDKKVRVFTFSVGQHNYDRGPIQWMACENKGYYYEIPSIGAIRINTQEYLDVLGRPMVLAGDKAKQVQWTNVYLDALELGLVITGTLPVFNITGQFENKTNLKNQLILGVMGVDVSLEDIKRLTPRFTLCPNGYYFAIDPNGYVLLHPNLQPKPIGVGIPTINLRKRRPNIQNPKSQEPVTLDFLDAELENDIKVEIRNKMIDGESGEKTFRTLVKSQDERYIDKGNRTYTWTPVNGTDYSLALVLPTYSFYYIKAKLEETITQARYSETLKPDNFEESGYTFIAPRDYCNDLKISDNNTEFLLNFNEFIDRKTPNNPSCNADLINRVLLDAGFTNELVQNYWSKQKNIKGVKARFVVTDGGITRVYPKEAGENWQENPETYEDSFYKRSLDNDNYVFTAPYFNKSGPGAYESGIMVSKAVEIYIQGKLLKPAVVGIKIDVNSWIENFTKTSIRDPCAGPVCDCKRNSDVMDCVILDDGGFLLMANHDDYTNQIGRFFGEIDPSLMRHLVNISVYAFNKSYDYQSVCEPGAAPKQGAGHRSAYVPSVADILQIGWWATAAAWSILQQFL
T1 sequence (P54289 947-1103 partner limits assumed): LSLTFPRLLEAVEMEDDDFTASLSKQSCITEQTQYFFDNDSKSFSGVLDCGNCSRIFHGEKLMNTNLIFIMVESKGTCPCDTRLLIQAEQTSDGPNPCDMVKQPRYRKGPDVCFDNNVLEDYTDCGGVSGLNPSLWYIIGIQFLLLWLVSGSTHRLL
As to the kind of experiment: FLIPR assay (TSA201 cells stably transfected with human Cav2.2 and human Kir2.3, FLUO-4 Ca2+ signal, KCl depolarization). Format: cell-based. Particulars: 70 mM KCl depolarization, average value. In outline: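 TSA201 cells co-expressing Cav2.2 (α1, β3, α2δ) and Kir2.3 were loaded with FLUO-4 for 1 h at room temperature. Compound in HBSS with 1% DMSO was preincubated 15 min, then cells were depolarized with 70 mM final KCl (with CaCl2 and HEPES) and the Ca2+ fluorescence was read on FLIPR.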
As usually defined, the IC50 is the midpoint of a concentration-inhibition curve. Higher therefore signals lower potency. For the molecule `CC(=O)N(Cc1csc(N2CCC(CO)CC2)n1)c1ccc(F)cc1` [Compound 224, N-(4-fluorophenyl)-N-({2-[4-(hydroxymethyl)piperidin-1-yl]-1,3-thiazol-4-yl}methyl)acetamide], the IC50 stood at 12.3 µM. In other words, the double-digit micromolar range.
To `CC(=O)N(Cc1csc(N2CCCC(CO)C2)n1)c1ccc(F)cc1` (stereo not drawn) [Compound 225, N-(4-fluorophenyl)-N-({2-[3-(hydroxymethyl)piperidin-1-yl]-1,3-thiazol-4-yl}methyl)acetamide] belongs 16.4 µM; to `CC(=O)N(Cc1ccc(N2CCCN(C)CC2)nc1)c1ccc(F)cc1` [Compound 226, N-(4-fluorophenyl)-N-{[6-(4-methyl-1,4-diazepan-1-yl)pyridin-3-yl]methyl}acetamide], 26.2 µM.
To `CC(=O)N(Cc1ccc(N2CCOCC2)nc1)c1ccc(F)cc1` [Compound 227, N-(4-fluorophenyl)-N-[(6-morpholin-4-ylpyridin-3-yl)methyl]acetamide] belongs 35 µM; to `CCN(CC)c1ccc(CN(C(C)=O)c2ccc(F)cc2)cn1` [Compound 228, N-{[6-(diethylamino)pyridin-3-yl]methyl}-N-(4-fluorophenyl)acetamide], 12.6 µM.
The figure for `CC(=O)N(Cc1ccc(N2CCC(C#N)CC2)nc1)c1ccc(F)cc1` [Compound 229, N-{[6-(4-cyanopiperidin-1-yl)pyridin-3-yl]methyl}-N-(4-fluorophenyl)acetamide] is 19.7 µM.
Molecule `CC(=O)N(Cc1ccc(N(C)CCO)nc1)c1ccc(F)cc1` [Compound 230, N-(4-fluorophenyl)-N-({6-[(2-hydroxyethyl)(methyl)amino]pyridin-3-yl}methyl)acetamide] had a concentration for half-maximal inhibition (IC50) of 45.3 µM.
The figure for `CC(=O)N(Cc1ccc(N2CCC(O)CC2)nc1)c1ccc(F)cc1` [Compound 231, N-(4-fluorophenyl)-N-{[6-(4-hydroxypiperidin-1-yl)pyridin-3-yl]methyl}acetamide] is 49.7 µM.
For the molecule `CC(=O)N(Cc1ccc(N2CCCC(O)C2)nc1)c1ccc(F)cc1` (stereo not drawn) [Compound 232, N-(4-fluorophenyl)-N-{[6-(3-hydroxypiperidin-1-yl)pyridin-3-yl]methyl}acetamide], the 50% inhibitory concentration (IC50) was found to be 30.2 µM.
To `CC(=O)N(Cc1ccc(N2CCC(CO)CC2)nc1)c1ccc(F)cc1` [Compound 233, N-(4-fluorophenyl)-N-({6-[4-(hydroxymethyl)piperidin-1-yl]pyridin-3-yl}methyl)acetamide] belongs 22.2 µM; to `CC(=O)N(Cc1ccc(N2CCCC(CO)C2)nc1)c1ccc(F)cc1` (stereo not drawn) [Compound 234, N-(4-fluorophenyl)-N-({6-[3-(hydroxymethyl)piperidin-1-yl]pyridin-3-yl}methyl)acetamide], 13.9 µM; to `CC(=O)N(Cc1ccc(N2CCC(CO)CC2)nc1)C1CCCC1` [Compound 235, N-cyclopentyl-N-({6-[4-(hydroxymethyl)piperidin-1-yl]pyridin-3-yl}methyl)acetamide], 36.4 µM.
To `CC(=O)N(Cc1ccc(N2CCN(C)CC2)nc1)C1CCCCC1` [Compound 236, N-cyclohexyl-N-{[6-(4-methylpiperzin-1-yl)pyridin-3-yl]methyl}acetamide] belongs 29.4 µM.
As for `CC(=O)N(Cc1ccc(N2CCC(CO)CC2)nc1)C1CCCCC1` [Compound 237, N-cyclohexyl-N-({6-[4-(hydroxymethyl)piperidin-1-yl]pyridin-3-yl}methyl)acetamide], the IC50 was found to be 23.9 µM.
`CCN(c1nc(CN(C(C)=O)C2CCC(C(C)(C)C)CC2)cs1)C1CC1` (stereo not drawn) [Compound 238, N-(4-tert-butylcyclohexyl)-N-({2-[cyclopropyl(ethyl)amino]-1,3-thiazol-4-yl}methyl)acetamide] had a 50% inhibitory concentration (IC50) of 3.3 µM.
As for `CC1CN(c2nc(CN(C(=O)C(C)(C)C)c3ccc(F)cc3)cs2)CC(C)O1` (stereo not drawn) [Compound 239, 2,2-dimethylpropanamide N-{[2-(2,6-dimethylmorpholin-4-yl)-1,3-thiazol-4-yl]methyl}-N-(4-fluorophenyl)-], the IC50 was 3.4 µM.
For `CC(C)(C)C(=O)N(Cc1csc(-c2cnc3ccccc3c2)n1)c1ccc(F)cc1` [Compound 240, N-(4-fluorophenyl)-2,2-dimethyl-N-[(2-quinolin-3-yl-1,3-thiazol-4-yl)methyl]propanamide], the IC50 came out at 10.1 µM.
The molecule `CC(C)(C)C(=O)N(Cc1csc(-c2ccc(C(F)(F)F)cc2)n1)c1ccc(F)cc1` [Compound 241, N-(4-fluorophenyl)-2,2-dimethyl-N-({2-[4-(trifluoromethyl)phenyl]-1,3-thiazol-4-yl}methyl)propanamide] gave an IC50 of 6.7 µM.
`CC(C)(C)C(=O)N(Cc1csc(-c2cccc(C(F)(F)F)c2)n1)c1ccc(F)cc1` [Compound 242, N-(4-fluorophenyl)-2,2-dimethyl-N-({2-[3-(trifluoromethyl)phenyl]-1,3-thiazol-4-yl]methyl)propanamide]: 5.5 µM corresponded to half-maximal inhibition (IC50). This IC50 and that of the molecule before are within 1.5-fold of each other.
Turning to `CC(C)(C)C(=O)N(Cc1csc(-c2ccccc2C(F)(F)F)n1)c1ccc(F)cc1` [Compound 243, N-(4-fluorophenyl)-2,2-dimethyl-N-({2-[2-(trifluoromethyl)phenyl]-1,3-thiazol-4-yl}methyl)propanamide], the half-maximal inhibitory concentration (IC50) came out at 4.1 µM.
The figure for `CC(C)(C)C(=O)N(Cc1csc(-c2ccc(O)cc2)n1)c1ccc(F)cc1` [Compound 244, N-(4-fluorophenyl)-N-{[2-(4-hydroxyphenyl)-1,3-thiazol-4-yl]methyl}-2,2-dimethylpropanamide] is 7.3 µM.
`CC(C)(C)C(=O)N(Cc1csc(-c2cccc(O)c2)n1)c1ccc(F)cc1` [Compound 245, N-(4-fluorophenyl)-N-{[2-(3-hydroxyphenyl)-1,3-thiazol-4-yl]methyl}-2,2-dimethylpropanamide] yielded an IC50 of 5.4 µM.
The figure for `CC(C)(C)C(=O)N(Cc1csc(-c2ccccc2O)n1)c1ccc(F)cc1` [Compound 246, N-(4-fluorophenyl)-N-{[2-(2-hydroxyphenyl)-1,3-thiazol-4-yl]methyl}-2,2-dimethylpropanamide] is 7.2 µM; for `CC(C)(C)C(=O)N(Cc1csc(-c2ccc(F)cc2)n1)c1ccc(F)cc1` [Compound 247, N-(4-fluorophenyl)-N-{[2-(4-fluorophenyl)-1,3-thiazol-4-yl]methyl}-2,2-dimethylpropanamide] it is 5 µM.
The molecule `CC(C)(C)C(=O)N(Cc1csc(-c2cccc(F)c2)n1)c1ccc(F)cc1` [Compound 248, N-(4-fluorophenyl)-N-{[2-(3-fluorophenyl)-1,3-thiazol-4-yl]methyl}-2,2-dimethylpropanamide] registered an IC50 of 5.3 µM.
With `CC(C)(C)C(=O)N(Cc1csc(-c2ccccc2F)n1)c1ccc(F)cc1` [Compound 249, N-(4-fluorophenyl)-N-{[2-(2-fluorophenyl)-1,3-thiazol-4-yl]methyl}-2,2-dimethylpropanamide], it took 7.9 µM to reach half-maximal inhibition (IC50).
`CN1CCN(c2ccc(CN(C(=O)C3CCCO3)c3ccc(F)cc3)cn2)CC1` (stereo not drawn) [Compound 250, N-(4-fluorophenyl)-N-{[6-(4-methylpiperazin-1-yl)pyridin-3-yl]methyl}tetrahydrofuran-2-carboxamide]: the IC50 worked out at 34.4 µM.
The figure for `O=C(C1CCCO1)N(Cc1ccc(Cl)nc1)c1ccc(F)cc1` (stereo not drawn) [Compound 252, N-[(6-chloropyridin-3-yl)methyl]-N-(4-fluuorophenyl)tetrahydrofuran-2-carboxamide] is 13.4 µM; for `CC(C)(C)OC(=O)N1CC[C@H](C(=O)N(Cc2ccc(Cl)nc2)c2ccc(F)cc2)C1` [Compound 254, TERT-BUTYL (3S)-3-{[(6-CHLOROPYRIDIN-3-YL)METHYL](4-FLUOROPHENYL)CARBAMOYL}PYRROLIDINE-1-CARBOXYLATE] it is 2.9 µM; for `CC(C)(C)OC(=O)N1CC[C@@H](C(=O)N(Cc2ccc(Cl)nc2)c2ccc(F)cc2)C1` [Compound 255, tert-butyl (3R)-3-{[(6-chloropyridin-3-yl)methyl](4-fluorophenyl)carbamoyl}pyrrolidine-1-carboxylate] it is 2.8 µM.
On to `CN1CCN(c2ccc(CN(C(=O)[C@H]3CCN(C(=O)OC(C)(C)C)C3)c3ccc(F)cc3)cn2)CC1` [Compound 256, tert-butyl (3S)-3-[(4-fluorophenyl){[6-(4-methylpiperazin-1-yl)pyridin-3-yl]methyl}carbamoyl]pyrrolidine-1-carboxylate], for which the midpoint of inhibition, the IC50, lay at 12.6 µM. This IC50 lies about 4.5-fold higher than the previous one.
To `CN1CCN(c2ccc(CN(C(=O)[C@@H]3CCN(C(=O)OC(C)(C)C)C3)c3ccc(F)cc3)cn2)CC1` [Compound 257, tert-butyl (3R)-3-[(4-fluorophenyl){[6-(4-methylpiperazin-1-yl)pyridin-3-yl]methyl}carbamoyl]pyrrolidine-1-carboxylate] belongs 22.9 µM; to `CN1CCN(c2ccc(CN(C(=O)[C@H]3CCNC3)c3ccc(F)cc3)cn2)CC1` [Compound 258, (3S)-N-(4-fluorophenyl)-N-{[6-(4-methylpiperazin-1-yl)pyridin-3-yl]methyl}pyrrolidine-3-carboxamide], 57.7 µM; to `CN1CCN(c2ccc(CN(C(=O)[C@@H]3CCNC3)c3ccc(F)cc3)cn2)CC1` [Compound 259, (3R)-N-(4-fluorophenyl)-N-{[6-(4-methylpiperazin-1-yl)pyridin-3-yl]methyl}pyrrolidine-3-carboxamide], 59.5 µM.
The figure for `CN1CCN(c2ccc(CN(C(=O)[C@H]3CCN(C(=O)C(C)(C)C)C3)c3ccc(F)cc3)cn2)CC1` [Compound 260, (3S)-1-(2,2-dimethylpropanoyl)-N-(4-fluorophenyl)-N-{[6-(4-methylpiperazin-1-yl)pyridin-3-yl]methyl}pyrrolidine-3-carboxamide] is 47.3 µM; for `CN1CCN(c2ccc(CN(C(=O)[C@@H]3CCN(C(=O)C(C)(C)C)C3)c3ccc(F)cc3)cn2)CC1` [Compound 261, (3R)-1-(2,2-dimethylpropanoyl)-N-(4-fluorophenyl)-N-{[6-(4-methylpiperazin-1-yl)pyridin-3-yl]methyl}pyrrolidine-3-carboxamide] it is 55.6 µM.

The values are drawn from patent US20100267697A1, “ION CHANNEL MODULATORS” (Wyeth, priority 2006, published 2010).
